Assay results reported in patent US8946457B2, “Flavone derivatives and their preparative method and medical use” (Tianjin Medical University, priority 2010, dated 2015).
pEC50: −log10 of the molar value. Entries after “also recorded” stand apart in the source; their conditions may differ.

Columns and labels:
IR HepG2 cells = experiment: Glucose consumption assay in IR HepG2 cells; type: cell-based, Human; settings: for pEC50: Homo sapiens, insulin-resistant HepG2 cells, 24 h incubation with compound, read-out: EC50, effects on glucose consumption in IR HepG2 cells; for Antidiabetic activity (glucose consumption) compared with metformin, in words: IR HepG2 cells, comparison with metformin
Protocol: The compounds were dissolved in DMSO as stock. The final solution was 1:1,000 dilution of the stock in DMEM.
Human HepG2 cells were cultured in 96-well cluster plates, after achieving confluence, 10^−[…] insulin was treated for 36 h in serum-free and phenol red-free high-glucose DMEM. After this incubation, the cells were washed four times with high-glucose DMEM ([…]) and twice with phosphate-buffered saline. The cells were added to serum-free and phenol red-free high-glucose DMEM containing the various test compounds at different concentrations, incubated for 24 h, and then glucose content in the culture medium was measured using a glucose assay kit.
The enhancement ratio of glucose consumption (GC) was calculated as follows: GC %=(GC treatment group−GC of control group)/GC of control group×100.
The potencies of the products were expressed as median effective concentration (EC50) values.
All data were presented as the means±SD. SPSS10.0 was used for statistical analysis. Statistical significance was at a level of 5% (p<0.05).

GLUT4 = experiment: GLUT4myc translocation (cell surface GLUT4myc density, ELISA) in L6-GLUT4myc skeletal muscle cells; type: cell-based, rat; settings: for Stimulation of GLUT4myc translocation, in words: L6-GLUT4myc muscle cells, 24 h incubation; for Effect on GLUT4 translocation compared with insulin: L6-GLUT4myc cells, insulin 100 nM positive control
From the text: GLUT4 is the main glucose transporter in skeletal muscle. In the basal state, the majority of GLUT4 locate in vesicles of cytoplasma. In response to insulin, GLUT4 translocates to the cell membrane, therefore transport more glucose into cell. The rate of glucose transport is the rate-limiting step of glucose metabolism in skeletal muscle. […] In order to measure GLUT4 translocation, we use stable over expressing GLUT4myc rat muscle cell line, L6-GLUT4myc. The amount of GLUT4 on intact cell membrane was measured by ELISA with anti-myc antibody and HRP-conjugated secondary antibody. The OD value was detected at 492 nm.
The tested compounds were dissolved in DMSO as stock. The final solution was 1:1,000 dilution of the stock in low glucose DMEM.
The cells were treated with each compound at 2 to 5 different concentrations with triplicate in each group. The control group was treated with 0.1% DMSO. The blank group had no treatment. Insulin was used as positive control.
Myoblasts were cultured and differentiated into myotubes. Cells were serum starved for 4 hours, then incubated with different compounds at different concentrations for 24 hours or with 100 nM insulin for 20 min. Then cells were washed 3 times with ice-cold phosphate-butfered saline (PBS) supplemented with 1 mM Ca2+ and 1 mM Mg2+(PBS+), fixed with 3% (v/v) paraformaldehyde (PFA) in PBS+ for 10 min at 4° C., then 20 min at room temperature. The cells were washed twice with PBS+, quenched 10 min with 100 mM glycine in PBS+, blocked 10 min with ice-cold 5% (v/v) milk in PBS+, and reacted with polyclonal anti-myc antibody (1:250) for 1 hour. After washing 6 times with PBS+, cells reacted with HRP-bound goat anti-rabbit secondary antibody (1:5000) for 1 hour. The cells were washed 6 times with PBS+, and incubated with 1.0 ml OPD reagent and allowed to develop for 10-20 min. The reaction was stopped with 0.25 ml per well of 3 M HCl. Supernatants were collected and absorbance was measured at 492 nm. Background absorbance obtained in the absence of anti-myc antibody was subtracted from all values.
All data were presented as the means±SD. SPSS16.0 was used for statistical analysis. Data sets of more than two groups were compared using analysis of variance (One-Way ANOVA). Statistical significance was at a level of 5% (p<0.05).

AMPK = experiment: Phosphorylation of AMPK by western blotting in HepG2 cells; type: cell-based, Human; settings: 2 h incubation, western blot
Protocol: (§1) In this section, Western Blotting was used to assay the effect of these flavonoids on the phosphorylation of AMPK and ACC in HepG2 cells to illustrate the relationship between the mechanism of the flavonoids on glucose uptake and lipid metabolism and APMK signal pathway.
(§2) Whole cell lysate preparation: After serum-starving HepG2 cells, the cells were incubated with the flavonoids for 2 h, and then washed twice with PBS. Next, pre-chilled RIPA lysis buffer was added for 20 min at 4° C. The lysates were centrifuged at 13,000 rpm/min for 10 min at 4° C., and the supernatants were used for determination of total protein content. Forty micrograms of protein from the supernatant was aliquoted and its volume was adjusted to thirty microliters using deionized water and loading buffer. Lastly, the protein samples were heated at 65° C. for 15 min.
(§3) Western blot analysis: The samples were electrophoresed on 7.5% SDS-polyacrylamide gels, transferred to polyvinylidene fluoride membranes, blocked for 1 h in 5% (w/v) bovine serum albumin, and then incubated with primary antibodies overnight at 4° C. The membranes were washed three times with TBST and incubated with appropriate secondary antibodies conjugated to horse-radish peroxidase for 1 h at room temperature. The immunoreactive bands were detected using chemiluminescent reagent and autoradiographic film.

ACC = experiment: Phosphorylation of ACC by western blotting in HepG2 cells; type: cell-based, Human; settings: 2 h incubation, western blot
Protocol: as §1, §2, §3

Compound: O=C(/C=C/c1ccc(O)cc1)COc1c(-c2ccc(O)cc2)oc2cc(O)cc(O)c2c1=O [Compound I-1, 3-O-[(E)-4-(4-Hydroxyphenyl)-2-oxobut-3-en-1-yl] kaempferol]
- pEC50 (IR HepG2 cells): 6.43
- Antidiabetic activity (glucose consumption) compared with metformin, in words (IR HepG2 cells): comparable activity with that of metformin

Compound: O=C(/C=C/c1ccc(OCc2ccccc2)cc1)COc1c(-c2ccc(O)cc2)oc2cc(O)cc(O)c2c1=O [Compound I-2, 3-O-[(E)-4-(4-(Benzyloxyphenyl))-2-oxobut-3-en-1-yl] kaempferol]
- pEC50 (IR HepG2 cells): 6.18
- Stimulation of GLUT4myc translocation, in words (GLUT4): significantly stimulate GLUT4myc translocation

Compound: COc1ccc(/C=C/C(=O)COc2c(-c3ccc(O)cc3)oc3cc(O)cc(O)c3c2=O)cc1 [Compound I-3, 3-O-[(E)-4-(4-Methoxyphenyl)-2-oxobut-3-en-1-yl] kaempferol]
- pEC50 (IR HepG2 cells): 6.83
- Antidiabetic activity (glucose consumption) compared with metformin, in words (IR HepG2 cells): comparable activity with that of metformin; also recorded: significantly superior to that of metformin
- Stimulation of GLUT4myc translocation, in words (GLUT4): significantly stimulate GLUT4myc translocation

Compound: CCOc1ccc(/C=C/C(=O)COc2c(-c3ccc(O)cc3)oc3cc(O)cc(O)c3c2=O)cc1 [Compound I-4, 3-O-[(E)-4-(4-Ethoxyphenyl)-2-oxobut-3-en-1-yl] kaempferol]
- pEC50 (IR HepG2 cells): 7.38
- Antidiabetic activity (glucose consumption) compared with metformin, in words (IR HepG2 cells): comparable activity with that of metformin; also recorded: significantly superior to that of metformin

Compound: O=C(/C=C/c1ccccc1)COc1c(-c2ccc(O)cc2)oc2cc(O)cc(O)c2c1=O [Compound I-5, 3-O-[(E)-(2-Oxo-4-phenylbut-3-en-1-yl)] kaempferol]
- pEC50 (IR HepG2 cells): 6.33

Compound: Cc1ccc(/C=C/C(=O)COc2c(-c3ccc(O)cc3)oc3cc(O)cc(O)c3c2=O)cc1 [Compound I-6, 3-O-[(E)-(2-Oxo-4-(p-tolyl)but-3-en-1-yl)] kaempferol]
- pEC50 (IR HepG2 cells): 8.00
- Antidiabetic activity (glucose consumption) compared with metformin, in words (IR HepG2 cells): comparable activity with that of metformin; also recorded: significantly superior to that of metformin

Compound: COc1ccc(/C=C/C(=O)COc2c(-c3ccc(O)cc3)oc3cc(O)cc(O)c3c2=O)cc1O [Compound I-7, 3-O-[(E)-4-(3-Hydroxy-4-methoxyphenyl)-2-oxobut-3-en-1-yl]kaempferol]
- pEC50 (IR HepG2 cells): 5.29

Compound: COc1cc(/C=C/C(=O)COc2c(-c3ccc(O)cc3)oc3cc(O)cc(O)c3c2=O)ccc1O [Compound I-8, 3-O-[(E)-4-(3-Methoxy-4-hydroxyphenyl-)-2-oxobut-3-en-1-yl]kaempferol]
- pEC50 (IR HepG2 cells): 5.21

Compound: CC(C)(C)c1ccc(/C=C/C(=O)COc2c(-c3ccc(O)cc3)oc3cc(O)cc(O)c3c2=O)cc1 [Compound I-9, 3-O-[(E)-4-(4-(tert-Butyl)phenyl)-2-oxobut-3-en-1-yl] kaempferol]
- pEC50 (IR HepG2 cells): 7.89
- Antidiabetic activity (glucose consumption) compared with metformin, in words (IR HepG2 cells): comparable activity with that of metformin; also recorded: significantly superior to that of metformin

Compound: CC(C)c1ccc(/C=C/C(=O)COc2c(-c3ccc(O)cc3)oc3cc(O)cc(O)c3c2=O)cc1 [Compound I-10, 3-O-[(E)-4-(4-Isopropylphenyl)-2-oxobut-3-en-1-yl] kaempferol]
- pEC50 (IR HepG2 cells): 7.82
- Antidiabetic activity (glucose consumption) compared with metformin, in words (IR HepG2 cells): comparable activity with that of metformin; also recorded: significantly superior to that of metformin
- Stimulation of GLUT4myc translocation, in words (GLUT4): significantly stimulate GLUT4myc translocation

Compound: O=C(/C=C/c1ccc(O)c(Cl)c1)COc1c(-c2ccc(O)cc2)oc2cc(O)cc(O)c2c1=O [Compound I-11, 3-O-[(E)-4-(3-Chloro-4-hydroxyphenyl)-2-oxobut-3-en-1-yl] kaempferol]
- pEC50 (IR HepG2 cells): 5.45

Compound: N#Cc1ccc(/C=C/C(=O)COc2c(-c3ccc(O)cc3)oc3cc(O)cc(O)c3c2=O)cc1 [Compound I-12, 3-O-[(E)-4-(4-Cyanophenyl)-2-oxobut-3-en-1-yl] kaempferol]
- pEC50 (IR HepG2 cells): 8.52
- Antidiabetic activity (glucose consumption) compared with metformin, in words (IR HepG2 cells): comparable activity with that of metformin; also recorded: significantly superior to that of metformin; also recorded: strongest antidiabetic activity; also recorded: greater than that of marketed drug metformin
- Effect on GLUT4 translocation compared with insulin (GLUT4; 2 μg/ml): higher effect on GLUT4 translocation than insulin; also recorded: strongest effect on promoting glucose transporter 4 translocation than insulin
- Effect on GLUT4 translocation compared with insulin (GLUT4; 5 μg/ml): higher effect on GLUT4 translocation than insulin; also recorded: strongest effect on promoting glucose transporter 4 translocation than insulin
- Stimulation of GLUT4myc translocation, in words (GLUT4): strongest effect; also recorded: significantly stimulate GLUT4myc translocation
- Phosphorylation of AMPK (AMPK): significantly stimulate the phosphorylation
- Phosphorylation of ACC (ACC): significantly stimulate the phosphorylation

Compound: O=C(/C=C/c1ccc(Br)cc1)COc1c(-c2ccc(O)cc2)oc2cc(O)cc(O)c2c1=O [Compound I-13, 3-O-[(E)-4-(4-Bromophenyl)-2-oxobut-3-en-1-yl] kaempferol]
- pEC50 (IR HepG2 cells): 6.41

Compound: O=C(/C=C/c1ccc(F)cc1)COc1c(-c2ccc(O)cc2)oc2cc(O)cc(O)c2c1=O [Compound I-14, 3-O-[(E)-4-(4-Fluorophenyl)-2-oxobut-3-en-1-yl] kaempferol]
- pEC50 (IR HepG2 cells): 6.17
- Stimulation of GLUT4myc translocation, in words (GLUT4): significantly stimulate GLUT4myc translocation

Compound: O=C(/C=C/c1ccc(Cl)cc1)COc1c(-c2ccc(O)cc2)oc2cc(O)cc(O)c2c1=O [Compound I-15, 3-O-[(E)-4-(4-Chlorophenyl)-2-oxobut-3-en-1-yl] kaempferol]
- pEC50 (IR HepG2 cells): 5.97

Compound: O=C(/C=C/c1ccc(Cl)c(Cl)c1)COc1c(-c2ccc(O)cc2)oc2cc(O)cc(O)c2c1=O [Compound I-16, 3-O-[(E)-4-(3,4-Dichlorophenyl)-2-oxobut-3-en-1-yl] kaempferol]
- pEC50 (IR HepG2 cells): 5.59

Compound: CN(C)C(=N)N=C(N)N [metformin, reference compound]
- pEC50 (IR HepG2 cells): 6.57
